In patent publication US5441941A, “1,2-dihydroellipticines with activity against CNS specific cancer” (The United States of America as represented by the …, priority 1993, dated 1995):

How the values were obtained:
[1] = tested on: DMS 273; experiment: NCI in vitro screen, SRB percent growth, Small Cell Lung Cancer
[2] = tested on: DMS 114; experiment: cells; details: Homo sapiens; for CC50: DMS-114, read-out: LC-50
[3] = DMS-114, read-out: Percent Growth

Structure (SMILES): COc1ccc2[nH]c3c(C)c4c(c(C)c3c2c1)CN(C)C=C4 [Formula VII]
- Percent Growth ([1]; Log10 Concentration -4.0, 100 µM): -72%
- Percent Growth ([1]; Log10 Concentration -5.0): 10%
- Percent Growth ([1]; Log10 Concentration -6.0, 1 µM): 48%
- Percent Growth ([1]; Log10 Concentration -7.0, 0.1 µM): 77%
- Percent Growth ([1]; Log10 Concentration -8.0): 98%
- CC50 ([1]; read-out: LC-50, PG=-50): 54.3 µM
- CC50 [2]: > 100 µM
- activity at 0.1 µM [2, 3]: 64%
- activity at 1 µM [2, 3]: 11%
- activity at 10 µM [2, 3]: -37%
- activity at 100 µM [2, 3]: -46%

Structure (SMILES): Cc1ccc2[nH]c3c(C)c4c(c(C)c3c2c1)CN(C)C=C4 [Formula XI]
- CC50 [2]: 6.03 µM
- activity at 0.01 µM [2, 3]: 80%
- activity at 0.1 µM [2, 3]: 73%
- activity at 10 µM [2, 3]: -74%
- activity at 100 µM [2, 3]: -68%
